# Patent publication US10752635B2, “Indazole compounds and uses thereof” (Incyte Corporation, priority 2018, dated 2020)
# Target: HPK1 (Homo sapiens (Human), UniProt Q92918)
# Assay: HPK1 Kinase Binding Assay
# Settings: active HPK1 (SignalChem M23-11G), tracer 222, LanthaScreen Eu-Anti GST antibody, one hour at 25° C.
# Procedure: A stock solution of 1 mM test compound was prepared in DMSO. The compound plate was prepared by 3-fold and 11-point serial dilutions. 0.1 μL of the compound in DMSO was transferred from the compound plate to the white 384 well polystyrene plates. The assay buffer contained 50 mM HEPES, pH 7.5, 0.01% Tween-20, 5 mM MgCl2, 0.01% BSA, and 5 mM DTT. 5 μL of 4 nM active HPK1 (SignalChem M23-11G) prepared in the buffer was added to the plate. The enzyme concentration given was based on the given stock concentration reported by the vender. […] After one hour incubation at 25° C., the plates were read on a PHERAstar FS plate reader (BMG Labtech). Ki values were determined.
# Chain of HPK1 (Q92918 1-346 limits assumed): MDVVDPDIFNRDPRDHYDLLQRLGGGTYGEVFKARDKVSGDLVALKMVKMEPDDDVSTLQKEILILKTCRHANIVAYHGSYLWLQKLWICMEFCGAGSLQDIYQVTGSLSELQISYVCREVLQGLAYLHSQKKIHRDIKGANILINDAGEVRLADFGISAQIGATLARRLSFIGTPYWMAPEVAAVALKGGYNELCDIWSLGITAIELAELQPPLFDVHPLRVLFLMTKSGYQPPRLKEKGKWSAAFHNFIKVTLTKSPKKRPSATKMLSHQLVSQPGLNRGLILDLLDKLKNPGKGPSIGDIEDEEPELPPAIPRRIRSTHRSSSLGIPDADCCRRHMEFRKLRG
row,SMILES,Ki
1,"COc1cccc(F)c1-c1nccc(C(=O)Nc2cc(F)c3nn(C)cc3c2N2CCC3(CCNC3=O)C2)n1 (single isomer, unassigned; peak 1) [8, Peak 1]",< 100 nM
2,"COc1cccc(F)c1-c1nccc(C(=O)Nc2cc(F)c3nn(C)cc3c2-c2ccccc2C)n1 (single isomer, unassigned; peak 1) [14, Peak 1]",< 100 nM
3,"COc1cccc(F)c1-c1nccc(C(=O)Nc2cc(C#N)c3nn(C)cc3c2N2CCC[C@@H](N)C2)n1 (single isomer, unassigned; peak 1) [15, Peak 1]",< 100 nM
4,"CNC(=O)c1cc(NC(=O)c2ccnc(-c3c(F)cccc3OC)n2)c(N2CCC[C@@H](N)C2)c2cn(C)nc12 (single isomer, unassigned; peak 1) [16, Peak 1]",500 to 5000 nM
5,"COc1cccc(F)c1-c1nccc(C(=O)Nc2cc(F)c3c(cnn3C)c2-c2ccccc2C)n1 (single isomer, unassigned; peak 2) [14, Peak 2]",< 100 nM
6,"COc1cccc(F)c1-c1nccc(C(=O)Nc2cc(C#N)c3c(cnn3C)c2N2CCC[C@@H](N)C2)n1 (single isomer, unassigned; peak 2) [15, Peak 2]",< 100 nM
7,"COc1cccc(F)c1-c1nccc(C(=O)Nc2cc(F)c3nn(C)cc3c2N2CCOCC2)n1 [7, Peak 1]",< 100 nM
8,"COc1cccc(F)c1-c1nccc(C(=O)Nc2cc(C)c3nn(C)cc3c2N2CCNCC2)n1 [18, Peak 1]",< 100 nM
9,"COc1cccc(F)c1-c1nccc(C(=O)Nc2cc(F)c3c(cnn3C)c2-c2cccnc2)n1 [Example 20, N-(7-Fluoro-1-methyl-4-(pyridin-3-yl)-1H-indazol-5-yl)-2-(2-fluoro-6-methoxyphenyl)pyrimidine-4-carboxamide]",< 100 nM
10,"COc1cccc(F)c1-c1nccc(C(=O)Nc2cc(F)c3c(cnn3C)c2-c2cccc(CO)c2)n1 [Example 22, N-(7-Fluoro-4-(3-(hydroxymethyl)phenyl)-1-methyl-1H-indazol-5-yl)-2-(2-fluoro-6-methoxyphenyl)pyrimidine-4-carboxamide]",< 100 nM
11,"COc1cccc(F)c1-c1nccc(C(=O)Nc2cc(F)c3c(cnn3C)c2-c2ccccc2CO)n1 [Example 23, N-(7-Fluoro-4-(2-(hydroxymethyl)phenyl)-1-methyl-1H-indazol-5-yl)-2-(2-fluoro-6-methoxyphenyl)pyrimidine-4-carboxamide]",< 100 nM
12,"COc1cccc(F)c1-c1nccc(C(=O)Nc2cc(F)c3c(cnn3C)c2-c2cccc(CN(C)C)c2)n1 [Example 24, N-(4-(3-((Dimethylamino)methyl)phenyl)-7-fluoro-1-methyl-1H-indazol-5-yl)-2-(2-fluoro-6-methoxyphenyl)pyrimidine-4-carboxamide]",< 100 nM
13,"COc1cccc(F)c1-c1nccc(C(=O)Nc2ccc3c(c(I)nn3C)c2N2CCC(N(C)C)CC2)n1 [Example 27, N-(4-(4-(Dimethylamino)piperidin-1-yl)-3-iodo-1-methyl-1H-indazol-5-yl)-2-(2-fluoro-6-methoxyphenyl)pyrimidine-4-carboxamide]",< 100 nM
14,"COc1cccc(F)c1-c1nccc(C(=O)Nc2ccc3c(c(C)nn3C)c2N2CCC(N(C)C)CC2)n1 [Example 28, N-(4-(4-(Dimethylamino)piperidin-1-yl)-1,3-dimethyl-1H-indazol-5-yl)-2-(2-fluoro-6-methoxyphenyl)pyrimidine-4-carboxamide]",< 100 nM
15,"COc1cccc(F)c1-c1nccc(C(=O)Nc2ccc3c(c(-c4ccccc4)nn3C)c2N2CCC(N(C)C)CC2)n1 [Example 29, N-(4-(4-(Dimethylamino)piperidin-1-yl)-1-methyl-3-phenyl-1H-indazol-5-yl)-2-(2-fluoro-6-methoxyphenyl)pyrimidine-4-carboxamide]",100 to 500 nM
16,"COc1cccc(F)c1-c1nccc(C(=O)Nc2ccc3c(c(-c4cnn(C)c4)nn3C)c2N2CCC(N(C)C)CC2)n1 [Example 30, N-(4-(4-(Dimethylamino)piperidin-1-yl)-1-methyl-3-(1-methyl-1H-pyrazol-4-yl)-1H-indazol-5-yl)-2-(2-fluoro-6-methoxyphenyl)pyrimidine-4-carboxamide]",< 100 nM

# Now from value to molecule:
row,Ki,SMILES
1,< 100 nM,"COc1cccc(F)c1-c1nccc(C(=O)Nc2cc(F)c3nn(C)cc3c2N2C[C@@H](N)C[C@H]2CO)n1 (single isomer, unassigned; peak 1) [3, Peak 1]"
2,< 100 nM,"COc1cccc(F)c1-c1nccc(C(=O)Nc2cc(F)c3c(cnn3C)c2N2CCC3(CCNC3=O)C2)n1 (single isomer, unassigned; peak 2) [8, Peak 2]"
3,< 100 nM,"COc1cccc(F)c1-c1nccc(C(=O)Nc2cc(F)c3c(cnn3C)c2N2CCC[C@@H]2CN)n1 (single isomer, unassigned; peak 2) [10, Peak 2]"
4,< 100 nM,"CNC(=O)c1cc(NC(=O)c2ccnc(-c3c(F)cccc3OC)n2)c(N2CCC[C@@H](N)C2)c2cnn(C)c12 (single isomer, unassigned; peak 2) [16, Peak 2]"
5,< 100 nM,"COc1cccc(F)c1-c1nccc(C(=O)Nc2cc(F)c3c(cnn3C)c2N2CCOCC2)n1 [7, Peak 2]"
6,< 100 nM,"COc1cccc(F)c1-c1nccc(C(=O)Nc2cc(C)c3c(cnn3C)c2N2CCNCC2)n1 [18, Peak 2]"
7,< 100 nM,"CCNC(=O)N1C[C@@H]2C[C@H]1CN2c1c(NC(=O)c2ccnc(-c3c(F)cccc3OC)n2)cc(F)c2c1cnn2C [Example 2, (1S,4S)—N-Ethyl-5-(7-fluoro-5-(2-(2-fluoro-6-methoxyphenyl)pyrimidine-4-carboxamido)-1-methyl-1H-indazol-4-yl)-2,5-diazabicyclo[2.2.1]heptane-2-carboxamide]"
8,< 100 nM,"COc1cccc(F)c1-c1nccc(C(=O)Nc2cc(F)c3c(cnn3C)c2N2CC(N)C2)n1 [Example 9, N-(4-(3-Aminoazetidin-1-yl)-7-fluoro-1-methyl-1H-indazol-5-yl)-2-(2-fluoro-6-methoxyphenyl)pyrimidine-4-carboxamide]"
9,< 100 nM,"COc1cccc(F)c1-c1nccc(C(=O)Nc2cc(F)c3c(cnn3C)c2C2CCNC2)n1 (centres unmarked) [Example 11, N-(7-Fluoro-1-methyl-4-(pyrrolidin-3-yl)-1H-indazol-5-yl)-2-(2-fluoro-6-methoxyphenyl)pyrimidine-4-carboxamide]"
10,< 100 nM,"COc1cccc(F)c1-c1nccc(C(=O)Nc2cc(F)c3c(cnn3C)c2N2CCCC2=O)n1 [Example 12, N-(7-Fluoro-1-methyl-4-(2-oxopyrrolidin-1-yl)-1H-indazol-5-yl)-2-(2-fluoro-6-methoxyphenyl)pyrimidine-4-carboxamide]"
11,< 100 nM,"COc1cccc(F)c1-c1nccc(C(=O)Nc2cc(F)c3c(cnn3C)c2-n2cccn2)n1 [Example 13, N-(7-Fluoro-1-methyl-4-(1H-pyrazol-1-yl)-1H-indazol-5-yl)-2-(2-fluoro-6-methoxyphenyl)pyrimidine-4-carboxamide]"
12,< 100 nM,"COc1cccc(F)c1-c1nccc(C(=O)Nc2cc(F)c3c(cnn3CCO)c2N2CC[C@@H](N)C2)n1 [Example 17, (R)—N-(4-(3-Aminopyrrolidin-1-yl)-7-fluoro-1-(2-hydroxyethyl)-1H-indazol-5-yl)-2-(2-fluoro-6-methoxyphenyl)pyrimidine-4-carboxamide]"
13,< 100 nM,"COc1cccc(F)c1-c1nccc(C(=O)Nc2cc(F)c3c(cnn3C)c2-c2cnn(C)c2)n1 [Example 21, N-(7-Fluoro-1-methyl-4-(1-methyl-1H-pyrazol-4-yl)-1H-indazol-5-yl)-2-(2-fluoro-6-methoxyphenyl)pyrimidine-4-carboxamide]"
14,< 100 nM,"COc1cccc(F)c1-c1nccc(C(=O)Nc2cc(F)c3c(cnn3CCO)c2N2C[C@@H]3C[C@H]2CN3)n1 [Example 25, N-(4-((1S,4S)-2,5-diazabicyclo[2.2.1]heptan-2-yl)-7-fluoro-1-(2-hydroxyethyl)-1H-indazol-5-yl)-2-(2-fluoro-6-methoxyphenyl)pyrimidine-4-carboxamide]"
15,< 100 nM,"COCCn1ncc2c(N3C[C@@H]4C[C@H]3CN4)c(NC(=O)c3ccnc(-c4c(F)cccc4OC)n3)cc(F)c21 [Example 26, N-(4-((1S,4S)-2,5-diazabicyclo[2.2.1]heptan-2-yl)-7-fluoro-1-(2-methoxyethyl)-1H-indazol-5-yl)-2-(2-fluoro-6-methoxyphenyl)pyrimidine-4-carboxamide]"
16,< 100 nM,"COCCn1ncc2c(N3C[C@@H](N)C[C@H]3CO)c(NC(=O)c3ccnc(-c4c(F)cccc4OC)n3)cc(F)c21 [Example 31, N-(4-((2S,4S)-4-Amino-2-(hydroxymethyl)pyrrolidin-1-yl)-7-fluoro-1-(2-methoxyethyl)-1H-indazol-5-yl)-2-(2-fluoro-6-methoxyphenyl)pyrimidine-4-carboxamide]"
17,< 100 nM,"COc1cccc(F)c1-c1nccc(C(=O)Nc2cc(F)c3c(cnn3[C@@H]3CCOC3)c2N2C[C@@H](N)C[C@H]2CO)n1 [Example 32, N-(4-((2S,4S)-4-Amino-2-(hydroxymethyl)pyrrolidin-1-yl)-7-fluoro-1-((R)-tetrahydrofuran-3-yl)-1H-indazol-5-yl)-2-(2-fluoro-6-methoxyphenyl)pyrimidine-4-carboxamide]"
18,< 100 nM,"COc1cccc(F)c1-c1nccc(C(=O)Nc2cc(F)c3nn(C)cc3c2N2CCN[C@@H](CO)C2)n1 [Example 33, (R)—N-(7-Fluoro-4-(3-(hydroxymethyl)piperazin-1-yl)-2-methyl-2H-indazol-5-yl)-2-(2-fluoro-6-methoxyphenyl)pyrimidine-4-carboxamide]"
19,< 100 nM,"COc1cccc(F)c1-c1nccc(C(=O)Nc2cc(F)c3c(cnn3-c3ccncc3C#N)c2N2C[C@@H](N)C[C@H]2CO)n1 [Example 34, N-(4-((2S,4S)-4-Amino-2-(hydroxymethyl)pyrrolidin-1-yl)-1-(3-cyanopyridin-4-yl)-7-fluoro-1H-indazol-5-yl)-2-(2-fluoro-6-methoxyphenyl)pyrimidine-4-carboxamide]"
